Patent US9416128B2, “Fused heterocyclic compounds as ion channel modulators” (Gilead Sciences, Inc., priority 2013, dated 2016)
Read-outs that look alike come from different tables or passages of the source.

Columns and labels:
[1] = molecular target: wild-type human cardiac sodium channel, hNaV 1.5 (Peak INa) (Homo sapiens, UniProt Q14524); test: Peak INa screening assay (tonic block and use-dependent block); type: cell-based
Procedure: The assay uses an HEK293 (human embryonic kidney) cell line heterologously expressing the wild-type human cardiac sodium channel, hNaV 1.5, purchased from Millipore (Billerica, Mass.). No beta subunits were coexpressed with the Na channel alpha subunit. Cells are maintained with standard tissue culture procedures and stable channel expression is maintained with 400 μg/mL Geneticin in the culture medium. […] Currents are digitized at 25 kHz and low-pass filtered at 5 kHz and stored in the Sophion Bioscience Oracle database (Sophion Bioscience, Copenhagen, Denmark). Analysis is performed using QPatch Assay software and data are compiled in Excel 2010 (Microsoft, Seattle, Wash., U.S.A.). Compound stocks are routinely made by the Gilead Sample Bank in vials to 10 mM in dimethyl sulfoxide (DMSO). In some cases, when compounds are not soluble in DMSO, they are made in 100% ethanol. Stocks are sonicated as necessary. The extracellular solution for screening Late INa is composed of: 140 mM NaCl, 4 mM KCl, 1.8 mM CaCl2, 1 mM MgCl2, 10 mM HEPES and 10 mM Dextrose with pH adjusted to 7.35 using NaOH. The intracellular solution contains: 105 mM CsF, 20 mM CsCl, 10 NaF, 2 mM EGTA, 10 mM HEPES and 10 mM Dextrose with pH adjusted to 7.35 with CsOH. Compounds are diluted in extracellular solution using a MicroLab Nimbus (Hamilton Robotics, Reno, Nev.) to between 0.3 and 3 μM in glass vials and transferred to glass well plates before robotic addition to the cells. […] It is contemplated that the compounds of Formula I avoid significant block of peak INa. […] The intracellular solution used for the Peak INa assay is the same as outlined for the Late INa assay (see above). After establishing the whole cell recording configuration, channels were stimulated to open with low frequency (0.1 Hz) for so that the recording can be monitored and the extent to which the recording has stabilized can be assessed. The test compound is then applied at 1 or 3 μM was added 2 times at 60 second intervals. After the second compound addition, a 200 second wait period was imposed to allow for equilibration. Voltage protocols for TB and UDB are were performed in the absence and presence of compound and TB and UDB are calculated with respect to the compound free condition. Both TB and UDB were analyzed by incorporating rundown correction for the peak INa.

hNaV1.2 (SCN2A) = molecular target: T1, hNaV1.2 (SCN2A) (Homo sapiens, UniProt Q99250); test: Use-dependent inhibition of the CNS NaV1.2 sodium channel; type: cell-based; settings: HEK-293, % inhibition, 25 Hz; for inhibition at 1 µM: use-dependent block at 1 uM, read-out: Nav1.2 UDB 25 Hz 1 uM; for inhibition at 10 µM: use-dependent block at 10 uM, read-out: Nav1.2 UDB 25 Hz 10 uM
T1 construct: expressed in transfected cells
Procedure: HEK-293 cells stably expressing wild-type (WT) hNaV1.2 (SCN2A NCBI # NM_021007.2, SCN1B NCBI # NM_001037.4, SCN2B NCBI # NM_004588.2) were used to record INa. Cells are maintained with standard tissue culture procedures and stable channel expression is maintained with 800 ug/mL G418 and 3 ug/mL Puromycin in the culture medium. Unless otherwise noted, all reagents are purchased from Sigma-Aldrich (St Louis, Mo., U.S.A.).
Assays measuring Use-Dependent Block (UDB) of NaV1.2 are performed on an automated electrophysiology platform, QPatch 16X or QPatch HT (Sophion Bioscience, Copenhagen, Denmark), using the whole cell patch clamp technique to measure currents through the cell membrane. Series resistance compensation is set to 100% and series resistance and whole-cell compensation are performed automatically. Currents stored in the Sophion Bioscience Oracle database (Sophion Bioscience, Copenhagen, Denmark). Analysis is performed using QPatch Assay software and data are compiled in Excel 2010 (Microsoft, Seattle, Wash., U.S.A.). The internal (pipette) solution consists of (in mM) 105 CsF, 10 NaF, 20 CsCl, 2 EGTA, 10 HEPES, 10 Dextrose with a pH of 7.35 and osmolarity of 300 mOsmol/kg. The external (bath) solution contains in (mM): 145 NaCl, 4 KCl, 1.8 CaCl2, 1 MgCl2, 10 dextrose, 10 HEPES, with a pH of 7.35 and osmolarity of 310 mOsmol/kg. Experiments are carried out at 23-25° C.
Compound stocks are routinely made by the Gilead Sample Bank in vials to 10 mM in dimethyl sulfoxide (DMSO). In some cases, when compounds are not soluble in DMSO, they are made in 100% ethanol. Stocks are sonicated as necessary. […]
Cells are allowed to stabilize for 10 min after establishment of the whole-cell configuration before current is measured. The test compound is applied 2 times at 60 second intervals. After the second compound addition, a 200 second wait period was imposed to allow for equilibration. Leak currents are subtracted by using an online P/4 procedure and all currents are low-pass Bessel filtered at 5 kHz and digitized at […].
Results are presented as mean percentage inhibition.
Use-dependent block of NaV1.2 peak current is measured during pulse number 20 of a voltage pulse train (0 mV, 20 ms, 20 pulses, 25 Hz) from a holding potential of −120 mV.
Currents are normalized to the peak current recorded in response to the first pulse in each frequency train. The voltage protocol for UDB was performed in the absence and presence of compound and percentage inhibition was calculated with respect to the compound free condition.
Data analysis is performed using QPatch Assay Software 4.0, and Excel 2002 (Microsoft, Seattle, Wash., U.S.A.).

[2] = % inhibition, use-dependent block of peak INa at 3 uM, 3 Hz, pulse 50, read-out: Nav1.5 Peak UDB 3 Hz 3 uM
[3] = read-out: Nav1.5 Peak TB 3 uM, % inhibition, tonic block of peak INa at 3 uM, 0.1 Hz, holding -100 mV

wild-type human cardiac sodium channel, hNaV 1.5 (Peak INa), sequence (Q14524 whole entry): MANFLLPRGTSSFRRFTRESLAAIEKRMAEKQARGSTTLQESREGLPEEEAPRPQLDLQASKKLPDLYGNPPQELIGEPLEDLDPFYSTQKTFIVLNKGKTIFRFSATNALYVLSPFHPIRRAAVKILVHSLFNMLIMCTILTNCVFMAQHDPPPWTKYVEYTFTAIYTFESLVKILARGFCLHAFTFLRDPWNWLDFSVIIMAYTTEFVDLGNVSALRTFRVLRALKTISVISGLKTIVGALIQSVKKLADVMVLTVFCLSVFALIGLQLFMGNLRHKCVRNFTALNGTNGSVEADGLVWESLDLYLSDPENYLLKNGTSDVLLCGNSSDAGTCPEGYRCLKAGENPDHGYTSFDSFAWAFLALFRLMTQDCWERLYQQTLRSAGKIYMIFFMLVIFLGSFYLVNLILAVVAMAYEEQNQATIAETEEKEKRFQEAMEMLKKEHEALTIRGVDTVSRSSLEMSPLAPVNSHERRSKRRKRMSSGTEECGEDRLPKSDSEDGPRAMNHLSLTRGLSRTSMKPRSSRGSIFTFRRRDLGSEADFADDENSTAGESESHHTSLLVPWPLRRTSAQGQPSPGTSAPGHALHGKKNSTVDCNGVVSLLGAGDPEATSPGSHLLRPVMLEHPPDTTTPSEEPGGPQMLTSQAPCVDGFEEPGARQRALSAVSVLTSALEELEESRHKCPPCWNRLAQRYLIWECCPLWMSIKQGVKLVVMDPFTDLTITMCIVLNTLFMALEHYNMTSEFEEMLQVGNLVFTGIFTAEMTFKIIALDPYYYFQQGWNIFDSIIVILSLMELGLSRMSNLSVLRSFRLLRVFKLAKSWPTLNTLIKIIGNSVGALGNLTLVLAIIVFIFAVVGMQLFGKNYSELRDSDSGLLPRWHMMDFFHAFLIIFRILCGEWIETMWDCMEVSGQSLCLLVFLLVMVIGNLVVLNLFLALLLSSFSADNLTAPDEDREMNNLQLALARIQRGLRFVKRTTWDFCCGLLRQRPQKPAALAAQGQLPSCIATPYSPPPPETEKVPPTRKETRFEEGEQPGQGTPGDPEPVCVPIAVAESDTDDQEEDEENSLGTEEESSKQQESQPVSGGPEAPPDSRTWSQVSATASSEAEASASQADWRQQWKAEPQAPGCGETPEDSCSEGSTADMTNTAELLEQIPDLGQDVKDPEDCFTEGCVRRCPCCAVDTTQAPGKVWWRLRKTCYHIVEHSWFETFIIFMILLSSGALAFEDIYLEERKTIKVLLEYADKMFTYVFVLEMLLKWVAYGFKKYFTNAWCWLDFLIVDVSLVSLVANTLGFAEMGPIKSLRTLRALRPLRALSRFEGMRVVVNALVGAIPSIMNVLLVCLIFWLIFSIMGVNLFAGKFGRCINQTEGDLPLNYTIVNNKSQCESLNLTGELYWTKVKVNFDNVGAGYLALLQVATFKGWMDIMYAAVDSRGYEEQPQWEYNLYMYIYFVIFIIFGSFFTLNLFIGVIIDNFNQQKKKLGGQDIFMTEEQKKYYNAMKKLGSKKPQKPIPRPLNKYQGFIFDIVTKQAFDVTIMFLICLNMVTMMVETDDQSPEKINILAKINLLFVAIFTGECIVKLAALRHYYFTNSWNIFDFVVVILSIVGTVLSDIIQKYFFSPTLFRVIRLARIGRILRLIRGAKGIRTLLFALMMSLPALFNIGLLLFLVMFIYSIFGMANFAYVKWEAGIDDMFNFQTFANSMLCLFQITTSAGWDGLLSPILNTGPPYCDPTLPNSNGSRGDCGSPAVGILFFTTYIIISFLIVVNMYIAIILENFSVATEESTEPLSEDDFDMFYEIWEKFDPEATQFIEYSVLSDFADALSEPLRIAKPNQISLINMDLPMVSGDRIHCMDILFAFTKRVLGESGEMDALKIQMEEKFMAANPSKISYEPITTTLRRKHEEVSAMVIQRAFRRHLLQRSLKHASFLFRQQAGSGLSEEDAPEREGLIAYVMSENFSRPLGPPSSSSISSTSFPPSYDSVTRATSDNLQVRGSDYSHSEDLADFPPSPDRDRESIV
T1 sequence (Q99250 whole entry): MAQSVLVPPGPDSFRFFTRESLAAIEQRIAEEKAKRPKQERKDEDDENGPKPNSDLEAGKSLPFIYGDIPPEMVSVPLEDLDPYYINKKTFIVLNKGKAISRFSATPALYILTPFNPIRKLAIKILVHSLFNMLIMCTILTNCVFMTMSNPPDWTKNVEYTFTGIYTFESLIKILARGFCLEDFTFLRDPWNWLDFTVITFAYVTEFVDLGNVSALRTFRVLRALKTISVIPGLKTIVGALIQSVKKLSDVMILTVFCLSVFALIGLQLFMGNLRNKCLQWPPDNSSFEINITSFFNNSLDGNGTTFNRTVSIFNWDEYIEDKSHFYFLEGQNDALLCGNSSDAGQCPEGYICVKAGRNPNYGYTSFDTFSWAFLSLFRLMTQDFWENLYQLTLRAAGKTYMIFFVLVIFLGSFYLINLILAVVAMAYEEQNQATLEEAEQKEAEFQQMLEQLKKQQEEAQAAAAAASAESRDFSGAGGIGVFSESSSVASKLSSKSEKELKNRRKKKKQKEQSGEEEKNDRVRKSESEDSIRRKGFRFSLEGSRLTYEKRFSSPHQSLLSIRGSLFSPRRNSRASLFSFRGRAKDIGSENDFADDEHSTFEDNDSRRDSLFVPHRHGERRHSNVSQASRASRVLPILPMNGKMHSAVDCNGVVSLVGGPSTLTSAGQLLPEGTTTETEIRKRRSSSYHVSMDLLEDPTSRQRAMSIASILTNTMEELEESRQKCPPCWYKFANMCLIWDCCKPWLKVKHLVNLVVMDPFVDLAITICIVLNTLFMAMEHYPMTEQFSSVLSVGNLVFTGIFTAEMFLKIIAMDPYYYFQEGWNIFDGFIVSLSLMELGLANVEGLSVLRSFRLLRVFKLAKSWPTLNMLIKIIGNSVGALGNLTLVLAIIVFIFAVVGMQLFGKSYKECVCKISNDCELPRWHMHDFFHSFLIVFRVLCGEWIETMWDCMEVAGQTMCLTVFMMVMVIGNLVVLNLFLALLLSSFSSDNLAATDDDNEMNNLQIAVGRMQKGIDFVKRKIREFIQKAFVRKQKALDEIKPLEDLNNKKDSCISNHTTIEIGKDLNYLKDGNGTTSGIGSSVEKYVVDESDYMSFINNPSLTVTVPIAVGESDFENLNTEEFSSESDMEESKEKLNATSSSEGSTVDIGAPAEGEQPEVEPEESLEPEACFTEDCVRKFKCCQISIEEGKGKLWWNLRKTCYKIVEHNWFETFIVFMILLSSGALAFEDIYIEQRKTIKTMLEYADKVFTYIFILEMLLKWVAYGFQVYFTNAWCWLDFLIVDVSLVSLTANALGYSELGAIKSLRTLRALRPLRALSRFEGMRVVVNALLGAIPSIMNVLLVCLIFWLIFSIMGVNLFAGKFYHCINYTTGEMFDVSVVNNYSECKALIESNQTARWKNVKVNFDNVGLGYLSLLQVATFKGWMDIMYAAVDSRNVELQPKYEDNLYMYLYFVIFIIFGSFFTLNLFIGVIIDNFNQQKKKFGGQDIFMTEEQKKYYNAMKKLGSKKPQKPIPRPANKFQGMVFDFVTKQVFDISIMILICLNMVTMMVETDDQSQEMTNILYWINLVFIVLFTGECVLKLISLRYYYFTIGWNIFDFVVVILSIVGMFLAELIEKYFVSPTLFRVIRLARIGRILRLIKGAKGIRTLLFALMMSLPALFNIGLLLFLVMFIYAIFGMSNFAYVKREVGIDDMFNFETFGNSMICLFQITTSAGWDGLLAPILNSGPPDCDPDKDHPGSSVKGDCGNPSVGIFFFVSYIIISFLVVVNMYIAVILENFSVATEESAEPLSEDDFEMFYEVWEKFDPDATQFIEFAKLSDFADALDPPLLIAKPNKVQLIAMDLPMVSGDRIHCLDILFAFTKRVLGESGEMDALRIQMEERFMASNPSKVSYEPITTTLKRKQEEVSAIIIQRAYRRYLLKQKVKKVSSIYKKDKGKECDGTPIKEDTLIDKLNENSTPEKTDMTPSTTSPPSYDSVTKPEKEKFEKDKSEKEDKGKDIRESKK
T1 sequence (Q07699 19-218 partner): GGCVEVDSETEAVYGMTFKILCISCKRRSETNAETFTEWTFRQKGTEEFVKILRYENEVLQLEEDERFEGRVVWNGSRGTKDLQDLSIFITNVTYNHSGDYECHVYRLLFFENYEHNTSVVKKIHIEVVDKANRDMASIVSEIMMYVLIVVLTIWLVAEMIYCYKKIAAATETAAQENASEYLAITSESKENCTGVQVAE
T1 sequence (O60939 30-215 partner): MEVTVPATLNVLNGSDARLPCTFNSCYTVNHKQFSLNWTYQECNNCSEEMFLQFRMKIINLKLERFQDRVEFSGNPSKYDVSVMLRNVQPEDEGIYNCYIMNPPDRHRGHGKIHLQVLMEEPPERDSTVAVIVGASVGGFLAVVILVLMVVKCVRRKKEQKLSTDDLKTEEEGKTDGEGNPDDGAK

Row | SMILES | inhibition at 3 µM [1, 2] [%] | inhibition at 3 µM [1, 3] [%] | inhibition at 1 µM (hNaV1.2 (SCN2A)) [%] | inhibition at 10 µM (hNaV1.2 (SCN2A)) [%] | Nav1.5 Peak TB 3 uM ([1]; % inhibition, tonic block of peak INa at 3 uM, 0.1 Hz, holding -100 mV) [%] | Nav1.5 Peak UDB 3 Hz 3 uM ([1]; % inhibition, use-dependent block of peak INa at 3 uM, 3 Hz, pulse 50) [%]
1 | O=C1Oc2ccc(-c3ccc(OC(F)(F)F)cc3F)cc2CN1Cc1ccccn1 [Example 21, 6-(2-fluoro-4-(trifluoromethoxy)phenyl)-3-(pyridin-2-ylmethyl)-3,4-dihydro-2H-benzo[e][1,3]oxazin-2-one] | < 5 | 23 | < 5 | 59.4 |  | 
2 | CCOc1cc(C(F)(F)F)ccc1-c1ccc2c(c1)CN(Cc1ncccn1)C(=O)O2 [Example 35, 6-(2-ethoxy-4-(trifluoromethyl)phenyl)-3-(pyrimidin-2-ylmethyl)-3,4-dihydro-2H-benzo[e][1,3]oxazin-2-one] | 9.7 | 20.2 | 39.3 | 75.1 |  | 
3 | COc1cc(C(F)(F)F)ccc1-c1ccc2c(c1)CN(Cc1cccc(C)n1)C(=O)O2 [Example 44, 6-(2-methoxy-4-(trifluoromethyl)phenyl)-3-((6-methylpyridin-2-yl)methyl)-3,4-dihydro-2H-benzo[e][1,3]oxazin-2-one] | < 5 | 21.6 | 20.9 | 68.4 |  | 
4 | Cc1cc(C(F)(F)F)ccc1-c1ccc2c(c1)CN(Cc1ncccn1)C(=O)O2 [Example 37, 6-(2-methyl-4-(trifluoromethyl)phenyl)-3-(pyrimidin-2-ylmethyl)-3,4-dihydro-2H-benzo[e][1,3]oxazin-2-one] | < 5 | 14 | 7.8 | 27.1 |  | 
5 | COc1cc(OC(F)(F)F)ccc1-c1ccc2c(c1)CN(Cc1cccc(C)n1)C(=O)O2 [Example 46, 6-(2-methoxy-4-(trifluoromethoxy)phenyl)-3-((6-methylpyridin-2-yl)methyl)-3,4-dihydro-2H-benzo[e][1,3]oxazin-2-one] | < 5 | 34.7 | 22.4 | 77.2 |  | 
6 | COc1cc(C(F)(F)F)ccc1-c1ccc2c(c1)CN(Cc1ncccn1)C(=O)O2 [Example 34, 6-(2-methoxy-4-(trifluoromethyl)phenyl)-3-(pyrimidin-2-ylmethyl)-3,4-dihydro-2H-benzo[e][1,3]oxazin-2-one] | < 5 | 27.7 | 38.8 | 78.5 |  | 
7 | CCCOc1cc(OC(F)(F)F)ccc1-c1ccc2c(c1)CN(Cc1ncccn1)C(=O)O2 [Example 28, 6-(2-propoxy-4-(trifluoromethoxy)phenyl)-3-(pyrimidin-2-ylmethyl)-3,4-dihydro-2H-benzo[e][1,3]oxazin-2-one] | 6.9 | 12.9 | 17.1 | 58 |  | 
8 | CCCOc1cc(C(F)(F)F)ccc1-c1ccc2c(c1)CN(Cc1ncccn1)C(=O)O2 [Example 27, 6-(2-propoxy-4-(trifluoromethyl)phenyl)-3-(pyrimidin-2-ylmethyl)-3,4-dihydro-2H-benzo[e][1,3]oxazin-2-one] | 8.1 | 32 | 42.2 | 80.6 |  | 
9 | COc1cc(OC(F)(F)F)ccc1-c1ccc2c(c1)CN(Cc1ncccn1)C(=O)O2 [Example 9, 6-(2-methoxy-4-(trifluoromethoxy)phenyl)-3-(pyrimidin-2-ylmethyl)-3,4-dihydro-2H-benzo[e][1,3]oxazin-2-one] |  |  | 7.9 | 37 | 18.9 | <5
10 | CC(C)Oc1cc(C(F)(F)F)ccc1-c1ccc2c(c1)CN(Cc1ncccn1)C(=O)O2 [Example 25, 6-(2-isopropoxy-4-(trifluoromethyl)phenyl)-3-(pyrimidin-2-ylmethyl)-3,4-dihydro-2H-benzo[e][1,3]oxazin-2-one] | < 5 | 29.7 | 29.9 | 72.1 |  | 
11 | O=C1Oc2ccc(-c3ccc(C(F)(F)F)cc3F)cc2CN1Cc1ncccn1 [Example 36, 6-(2-fluoro-4-(trifluoromethyl)phenyl)-3-(pyrimidin-2-ylmethyl)-3,4-dihydro-2H-benzo[e][1,3]oxazin-2-one] | 5.9 | 11.5 | 19.1 | 55.9 |  | 
12 | O=C1Oc2ccc(-c3ccc(OC(F)(F)F)cc3F)cc2CN1Cc1ncccn1 [Example 7, 6-(2-fluoro-4-(trifluoromethoxy)phenyl)-3-(pyrimidin-2-ylmethyl)-3,4-dihydro-2H-benzo[e][1,3]oxazin-2-one] | < 5 | 14.9 | 18 | 56.3 |  | 
13 | O=C1Oc2ccc(-c3ccc4c(c3)OC(F)(F)O4)cc2CN1Cc1ncccn1 [Example 26, 6-(2,2-difluorobenzo[d][1,3]dioxol-5-yl)-3-(pyrimidin-2-ylmethyl)-3,4-dihydro-2H-benzo[e][1,3]oxazin-2-one] | < 5 | 20.7 | 28 | 71.1 |  | 
14 | COc1cc(OC(F)(F)F)ccc1-c1ccc2c(c1)CN(Cc1nccc(C)n1)C(=O)O2 [Example 31, 6-(2-methoxy-4-(trifluoromethoxy)phenyl)-3-((4-methylpyrimidin-2-yl)methyl)-3,4-dihydro-2H-benzo[e][1,3]oxazin-2-one] | < 5 | 12.2 | 13.2 | 45.7 |  | 
15 | Cc1csc(CN2Cc3cc(-c4ccc(OC(F)(F)F)cc4)ccc3OC2=O)n1 [Example 52, 3-((4-methylthiazol-2-yl)methyl)-6-(4-(trifluoromethoxy)phenyl)-3,4-dihydro-2H-benzo[e][1,3]oxazin-2-one] | < 5 | 11.9 | 20.8 | 63.7 |  | 
16 | Cc1cccc(CN2Cc3cc(-c4ccc(C(F)(F)F)cc4F)ccc3OC2=O)n1 [Example 45, 6-(2-fluoro-4-(trifluoromethyl)phenyl)-3-((6-methylpyridin-2-yl)methyl)-3,4-dihydro-2H-benzo[e][1,3]oxazin-2-one] | < 5 | 33.5 | 10.4 | 62.3 |  | 
